Tested on: H2-producing C. reinhardtii cultures
Test: H2 gas collection from H2-producing sulfur-deprived cultures after inhibitor addition
Type: cell-based, Chlamydomonas reinhardtii
Conditions: inhibitor added to H2-producing sulfur-depleted cultures
Description: Culture bottles (Schott or Roux type) were fitted with an #25 Ace thread and smaller side-ports for liquid sampling. A threaded glass stopper with capillaries for gas sampling was fitted with a Viton O-ring and used to seal the reactor. Threaded side-arm and gas sampling ports were sealed with rubber laminated Teflon septa. Teflon tubing (Aminco, HPLC), attached to one of the gas ports, was used to conduct gas evolved by the algae in the culture bottles to an upside-down graduated cylinder filled with H2O. The gas collection tubing was detached from the culture bottle during liquid and gas sampling to avoid disturbance of gas volume readings in the graduated cylinder.
We, thus, conclude that most of the reductants for H2 production are generated by residual water oxidation activity in sulfur-depleted C. reinhardtii cultures, but that an endogenous substrate may also contribute electrons for the process.

Compound	inhibition of H2 gas collection	rate of H2 gas collection relative to its initial value (% of initial value)
CC1=C(Br)C(=O)C(C(C)C)=C(Br)C1=O [DBMIB]	Total inhibition	
CN(C)C(=O)Nc1ccc(Cl)c(Cl)c1 [DCMU]		about 20%

From patent US6989252B2, “Hydrogen production using hydrogenase-containing oxygenic photosynthetic organisms” (Midwest Research Institute, priority 1999, dated 2006)
